The source of these data is patent US20090312411A1, “PREVENTING OR REDUCING RISK OF MISCARRIAGES” (New York Society for the Raptured and Crippled Maintaining …, priority 2008, published 2009).

One experiment has as its system PAR-2. In words: PAR-2 on peripheral blood neutrophils, two-color FACS. The class given is in vivo, mouse. The method, then:
Protocol. […] expression on mouse neutrophils. To study the presence of PAR-2 on peripheral blood neutrophils, two-color FACS analysis was performed. For this purpose heparinized whole mouse blood was stained with FITC-labeled anti-mouse Ly-6G (Gr-1) for FL1 (BD Biosciences Pharmingen, CA) to identify neutrophils and biotinylated anti-PAR-2 antibody (Santa Cruz Biotechnology, Inc, Santa Cruz, Calif.) and streptavidin-PerCP (BD Biosciences Pharmingen, CA) as the FL3 fluorochrome. Red cells were lyzed with ACK buffer. Preparations were then incubated with SA-PerCP and analyzed by FACS using a FACscan (BD Biosciences, CA).

Experiment [1] has as its system neutrophils. As to the kind of experiment: Respiratory burst activity (ROS) in neutrophils, DHR flow cytometry. The format is in vivo, mouse. The method, then: Respiratory burst activity in neutrophils. Intracellular reactive oxygen (ROS) production was assessed with dihydrorhodamine 123 (DHR, Sigma Chemical, St Louis, Mo.) by flow cytometry. This primarily non-fluorescent dye becomes fluorescent upon oxidation to rhodamine by ROS produced during the respiratory burst. DHR (10 μmol/L) was added to heparanized whole blood, and this mixture was incubated at 37° C. for 45 min. Red cells were lysed as described above and reactive-oxygen production was analyzed by […] in FL1.

The test system of experiment [2] is TF. In words: TF on peripheral blood neutrophils, two-color FACS. The format is in vivo, mouse. Conditions: flow cytometry. The method, then: Protocol. To study the presence of TF on peripheral blood neutrophils, two-color FACS analysis was performed. For this purpose heparinized whole mouse blood was stained with FITC-labeled anti-mouse Ly-6G (Gr-1) for FL1 (BD Biosciences Pharmingen, CA) to identify neutrophils and biotinylated rat anti-mTF antibody 1H1 and streptavidin-PerCP (BD Biosciences Pharmingen, CA) as the FL3 fluorochrome. Red cells were lyzed with ACK buffer. Preparations were then incubated with SA-PerCP and analyzed by FACS using a FACscan (BD Biosciences, CA).
(A flow cytometer gives signals particle by particle.)

The subject of experiment [3] is neutrophils. As to the kind of experiment: Phagocytosis assay, latex beads, flow cytometry. The format is in vivo, mouse. The method, then:
Phagocytosis assay. Heparanized whole blood was incubated (1 h, 37° C., 5% CO2) with 1 μm of fluorescent yellow-green latex beads (Sigma-Aldrich) (ratio phagocyte/target 1:25) that had been preopsonized with normal mouse serum for 1 h. Internalization of beads was determined by flow cytometry using a FACSCalibur (BD Biosciences) flow cytometer.

Experiment [4] has as its system murine model of antiphospholipid syndrome (APS). As to the kind of experiment: Fetal resorption in murine model of APS (aPL-treated pregnant mice). The format is in vivo. The settings on record: uterus from a mouse treated with aPL+simvastatin, day 15, FIG. 3. The method, then:
Protocol. […] The stock solution was diluted to the appropriate concentration in sterile PBS.
Protocol. Pregnant C57BL/6 mice were treated with IgG (10 mg i.p.) from a healthy non-autoimmune individual (NH-IgG), or different patients with APS (aPL-IgG) on days 8 and 12 of pregnancy. Mice were sacrificed on day 15 of pregnancy, uteri were dissected, fetuses were weighed, and frequency of fetal resorption calculated (number of resorptions/number of fetuses+number of resorptions).
Protocol. Pregnant mice were treated with pravastatin (0.2 μg/g bw=5 μg/mouse, i.p 18 hours prior to aPL or NHIgG injections on days 8 and 12). Pravastatin (Sigma Chemical, St Louis, Mo.) was dissolved in EtOH at a concentration of 10 mg/mL and diluted with NaCl 0.9% in a ratio of 1:1000 to yield a final concentration of 10 μg pravastatin per 1 mL carrier. The NaCl 0.9%-based carrier solution for the placebo group was prepared accordingly to include EtOH only (i.e., without pravastatin) at a concentration of 1:1000.

The test system of experiment [5] is TF. As to the kind of experiment: SM9-1 trophoblast TF immunohistochemistry with 1H1. The class given is cell-based, mouse. Conditions: SM9-1 cells incubated with sFlt-1 or monocyte supernatants, 72 hours; VEGF 500 pg/ml; pravastatin 5 μg/ml 3 hours prior. The method, then:
(§1) Protocol. SM9-1 trophoblast cells, derived from a gestational day 9 Swiss-Webster mouse placenta (SM9-1) (Bowen et al., Biol Reprod 60:428-434.), were incubated with the supernatants from monocytes incubated with C5a containing high levels of sFlt-1 (Girardi et al., 2006, J Exp Med 203:2165-2175). Some SM9-1 cells were incubated in the presence of increasing amounts of mouse sFlt-1 (R&D Systems) (1000, 2000, 4000 and 8000 pg/ml). After 72 hours, cell proliferation was evaluated by light microscopy. Some SM9-1 cells were incubated with pravastatin (5 μg/ml) for 3 hours prior to incubation with sFlt-1. Mouse VEGF (500 pg/ml) (R&D systems) was added to some SM9-1 incubated with sFlt-1 or monocytes supernatants. Immunohistochemical identification of TF with 1H1 and superoxide production by DHE was performed on the SM9-1 cells after 72 hours of culture.
(§2) Protocol. SM9-1 trophoblast cells were prepared as described in Example 21. Isolated SM9-1 cells were incubated in the presence of increasing amounts of mouse sFlt-1 (R&D Systems) (1000, 2000, 4000 and 8000 pg/ml). After 72 hours, cell proliferation was evaluated by light microscopy. SM9-1 cells were also incubated with pravastatin (5 μg/ml) for 3 hours prior to incubation with sFlt-1. Immunohistochemical identification of TF with 1H1 and superoxide production by DHE was performed on the SM9-1 cells after 72 hours of culture as described above.

The test system of experiment [6] is SM9-1 trophoblast cells. In words: SM9-1 trophoblast cell proliferation, light microscopy. The format is cell-based, mouse. Conditions: SM9-1 cells incubated with sFlt-1 or monocyte supernatants, 72 hours; VEGF 500 pg/ml; pravastatin 5 μg/ml 3 hours prior. The method, then:
as §1, §2

Experiment [7] concerns SM9-1 trophoblast cells. In words: SM9-1 trophoblast superoxide production by DHE. Conditions: SM9-1 cells incubated with sFlt-1 or monocyte supernatants, 72 hours; VEGF 500 pg/ml; pravastatin 5 μg/ml 3 hours prior. The class given is cell-based, mouse. The method, then:
as §1, §2

The test system of a further experiment is monocytes. As to the kind of experiment: sFlt-1 release by monocytes in vitro (ELISA). The class given is cell-based, mouse. The settings on record: 10 nM C5a for 4 h; pravastatin 5 μg/ml for 3 hours prior to C5a. The method, then:
Protocol. Mice with a selective deletion of the TF gene in myeloid cells (TF^floxed/floxed/LysM-Cre mice) (Redecha et al., supra), were used for isolation of monocytes to study sVEGFR-1 production in vitro. Blockade of TF was carried out as in Example 17 by i.p. injections of anti-mTF antibody 1H1.
Protocol. Splenocytes were prepared from non pregnant CBA/J female mice and incubated for 4 h in culture medium supplemented with 10% inactivated fetal bovine serum (FBS). Non adherent cells were removed and adherent cells (>95% peroxidase-positive) were incubated in culture medium with the addition of 10 nM mouse recombinant C5a. A group of adherent monocytes was treated for 3 hours with pravastatin (5 μg/ml) prior to incubation with C5a. After 4 h of incubation with C5a, culture supernatants were collected and analyzed for sVEGFR-1 by ELISA (R&D Systems).
For orientation: ELISA stands for enzyme-linked immunosorbent assay.

`CCC(C)(C)C(=O)O[C@H]1C[C@@H](C)C=C2C=C[C@H](C)[C@H](CC[C@@H]3C[C@@H](O)CC(=O)O3)[C@H]21` [Simvastatin, simvastatin]: the “PAR-2 (number of PAR-2 positive cells)” value is 7.4 ± 3.9 in the experiment on PAR-2 (aPL + simvastatin) and 6.9 ± 2.3 in the experiment with PAR-2 (treatment given alone). The ROS with neutrophils [1] (aPL + Simvastatin) is 10.4 ± 5.4 % of positive cells; in the experiment with neutrophils [1] (treatment given alone) it was 10.4 ± 4.5 % of positive cells. Further, the figures for the TF with TF [2] (aPL + Simvastatin) and in the experiment with TF [2] (treatment given alone) were 10 ± 5.7 % of positive cells and 6.6 ± 2.2 % of positive cells, respectively. Also, the results for the Phagocytosis in the experiment with neutrophils [3] (aPL + Simvastatin) and in the experiment on neutrophils [3] (treatment given alone) were 16.2 ± 2.9 % of positive cells and 18.7 ± 1.0 % of positive cells, respectively. In [4], the “viable fetuses in uterus” value stood at 7.
As for VEGF, in the experiment with TF [5], the “TF staining / expression” value is reported as “prevented TF expression”. Also, the “cell proliferation / cell growth” value in the experiment with SM9-1 trophoblast cells [6] was “restored cell proliferation”. Also, in the experiment on SM9-1 trophoblast cells [7], the “superoxide production / oxidative damage (DHE)” value was “prevented oxidative damage”.

B1: C5a: mouse recombinant C5a, complement component used to stimulate monocytes (protein, UniProt P06684 679-755, looked up)
C5a anaphylatoxin: NLHLLRQKIEEQAAKYKHSVPKKCCYDGARVNFYETCEERVARVTIGPLCIRAFNECCTIANKIRKESPHKPVQLGR
modifications: C5a anaphylatoxin
notes: mouse recombinant C5a, complement component used to stimulate monocytes
With B1, the “sFlt-1 released by monocytes” value with monocytes was determined as 6749 ± 1927 pg/mL.

B2: sFlt-1: soluble form of the VEGF-1 receptor, antiangiogenic molecule that sequesters VEGF (R&D Systems) (protein)
chain: YGSGSKLKVPELSLKGTQHVMQAGQTLFLKCRGEAAHSWSLPTTVSQEDKRLSITPPSACGRDNRQFCSTLTLDTAQANHTGLYTCRYLPTSTSKKKKAESSIYIFVSDAGSPFIEMHTDIPKLVHMTEGRQLIIPCRVTSPNVTVTLKKFPFDTLTPDGQRITWDSRRGFIIANATYKEIGLLNCEATVNGHLYQTNYLTHRQTNTILDVQIRPPSPVRLLHGQTLVLNCTATTELNTRVQMSWNYPGKATKRASIRQRIDRSHSHNNVFHSVLKINNVESRDKGLYTCRVKSGSSFQSFNTSVHVYEKGFISVKHRKQPVQETTAGRRSYRLSMKVKAFPSPEIVWLKDGSPATLKSARYLVHGYSLIIKDVTTEDAGDYTILLGIKQSRLFKNLTATLIVNVKPQIYEKSVSSLPSPPLYPLGSRQVLTCTVYGIPRPTITWLWHPCHHNHSKERYDFCTENEESFILDPSSNLGNRIESISQRMTVIEGTNKTVSTLVVADSQTPGIYSCRAFNKIGTVERNIKFYVTDVPNGFHVSLEKMPAEGEDLKLSCVVNKFLYRDITWILLRTVNNRTMHHSISKQKMATTQDYSITLNLVIKNVSLEDSGTYACRARNIYTGEDILRKTEVLVRDSEAPHLLQNLSDYEVSISGSTTLDCQARGVPAPQITWFKNNHKIQQEPGIILGPGNSTLFIERVTEEDEGVYRCRATNQKGAVESAAYLTVQGTSDKSNLE
B2: the “TF staining / expression” value in the experiment with TF [5] was “Increased TF staining”. In addition, the “cell proliferation / cell growth” value in the experiment on SM9-1 trophoblast cells [6] is listed as “diminished cell proliferation”. In addition, the “superoxide production / oxidative damage (DHE)” value with SM9-1 trophoblast cells [7] is “increased superoxide production”.
